For the data set, the system named is skin organotypic cultures (Epiderm). Description: Viability of skin organotypic cultures (MTT assay). Type of data set: cell-based. Here is the method:
The cultures were then incubated at 37° C., 5% CO2, and 95% relative humidity (standard cell culture conditions) for 24 h. The culture medium was assayed for the pro-inflammatory cytokine interleukin-6 (IL-6) and after washing to remove the AP formulation, the viability of the culture was determined using the Thiazoyl blue (MTT) assay (Mosmann, T. J. Immunol. Methods 65, p55 (1983). IL-6 was determined using an Immunoassay (Quantikine, R&D systems).
In this Example, skin organotypic cultures (Epiderm™, MatTek, USA) were treated topically with the above-identified AP formulation and the trans-10-cis-12 conjugated linoleic acid (TC CLA) was introduced into the medium. The cultures were then incubated at 37° C., 5% CO2, and 95% relative humidity (standard cell culture conditions) for 24 h. The culture medium was assayed for the pro-inflammatory cytokine interleukin-6 (IL-6) and after washing to remove the AP formulation, the viability of the culture was determined by the method described in Example 2.
The cultures were then incubated at 37° C., 5% CO2, and 95% relative humidity (standard cell culture conditions) for 24 hours. The culture medium was assayed for the pro-inflammatory cytokine interleukin-6 (IL-6) and after washing to remove the AP formulation, the viability of the culture was determined using the MTT assay. IL-6 was determined using an ELISA assay (R&D systems).

Molecules are shown by their SMILES.

Regarding `CC\C=C/C=C/C=C/C=C\CCCCCCCC(=O)O` [cis parinaric acid, cis-parinaric acid], the Culture viability result is given as “not significantly different”.

(Values after patent US6713051B2, “Antiperspirant or deodorant compositions” (Unilever Home & Personal Care USA division of Conopco, Inc., priority 2001, dated 2004).)
